Experimental data from US4435426A, “Ethers of phenol active on the cardiovascular system, process for preparing same and use thereof in drugs” (Societe Anonyme dite: Sanofi, priority 1981, dated 1984).

Legend:
[1] = target: T1, adrenergic β receptors (β1) (Canis lupus familiaris, UniProt P79148); experiment: Antagonism of the effects of isoprenaline: tachycardia (β1), anaesthetized dog, intravenous; assay type: in vivo; details: 50% inhibition of tachycardia (β1) induced by intravenous isoprenaline, i.v., read-out: ID 50 isoprenaline β1
T1 construct: The dog is anaesthetized with sodium pentobarbital; from tissue; host or cells: whole anaesthetized dog (in vivo, heart rate)
T1 sequence (P79148 whole entry): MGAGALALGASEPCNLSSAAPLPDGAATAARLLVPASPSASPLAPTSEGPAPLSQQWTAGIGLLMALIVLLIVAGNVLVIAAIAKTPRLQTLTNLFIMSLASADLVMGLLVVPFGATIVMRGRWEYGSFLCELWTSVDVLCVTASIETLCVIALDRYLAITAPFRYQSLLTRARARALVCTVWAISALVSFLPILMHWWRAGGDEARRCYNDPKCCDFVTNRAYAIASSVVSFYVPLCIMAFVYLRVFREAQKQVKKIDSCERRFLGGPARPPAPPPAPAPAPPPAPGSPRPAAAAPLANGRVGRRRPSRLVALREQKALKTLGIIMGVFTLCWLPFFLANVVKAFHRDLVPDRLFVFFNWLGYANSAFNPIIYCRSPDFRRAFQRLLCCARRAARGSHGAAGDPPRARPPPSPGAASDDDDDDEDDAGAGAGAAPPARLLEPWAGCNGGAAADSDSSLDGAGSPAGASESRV
Procedure: (§1) The dog is anaesthetized with sodium pentobarbital administered intravenously at the dose of 30 mg/kg. A canula placed in the short saphenous vein allows the products to be injected intravenously. The animal is intubed and breathes spontaneously.
(§2) The cardiac frequency and the systemic arterial pressure are studied and the variations of these parameters are observed after intravenous injection of the product to be tested, each product being injected at increasing doses.
(§3) The antagonism of the products vis-a-vis the β stimulant cardiovascular effects of isoprenaline on the adrenergic β receptors was sought. The results are shown in Table below and expressed in ID 50: this is the dose expressed in mg/kg which provokes 50% inhibition of tachycardia (β1) and of hypertension (β2) induced by the isoprenaline administered by intravenous route.

[2] = target: T2, adrenergic β receptors (β2) (Canis lupus familiaris, UniProt P54833); experiment: Antagonism of the effects of isoprenaline: hypertension (so in the source) (β2), anaesthetized dog, intravenous; assay type: in vivo; details: 50% inhibition of hypertension (β2) induced by intravenous isoprenaline, i.v., read-out: ID 50 isoprenaline β2
T2 construct: from tissue; host or cells: whole anaesthetized dog (in vivo, systemic arterial pressure)
T2 sequence (P54833 whole entry): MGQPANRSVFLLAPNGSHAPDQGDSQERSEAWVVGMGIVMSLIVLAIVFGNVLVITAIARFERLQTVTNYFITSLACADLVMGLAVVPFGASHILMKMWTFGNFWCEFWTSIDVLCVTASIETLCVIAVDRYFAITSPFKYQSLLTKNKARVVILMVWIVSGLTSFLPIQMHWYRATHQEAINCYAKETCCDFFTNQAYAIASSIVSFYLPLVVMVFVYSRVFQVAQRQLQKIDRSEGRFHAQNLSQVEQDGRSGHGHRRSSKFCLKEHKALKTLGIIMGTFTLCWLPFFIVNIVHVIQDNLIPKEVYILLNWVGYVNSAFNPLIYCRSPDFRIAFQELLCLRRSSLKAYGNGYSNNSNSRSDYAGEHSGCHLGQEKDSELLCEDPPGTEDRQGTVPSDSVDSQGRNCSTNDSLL
Procedure: as §1, §2, §3

| Structure (SMILES) | ED50 [1] [mg/kg] | ED50 [2] [mg/kg] |
| --- | --- | --- |
| C#CC(C)(C)NCC(O)COc1ccc(C)c2c1C(=O)CCC2 (centres unmarked) [compound 7760] | 0.1 | 0.03 |
| Cc1ccc(OCC(O)CNC(C)(C)C)c2c1CCCC2=O (centres unmarked) [compound 7706] | 0.1 | 0.01 |
| CC(C)(C)NCC(O)COc1cccc2c1C(=O)CCC2 (centres unmarked) [compound 7285, 1-(8-oxo 5,6,7,8-tetrahydro 1-naphthyloxy) 2-hydroxy 3-tertiobutylamino propane] | – | 0.03 |
